Source: patent US11229618B2 (Amarin Pharmaceuticals Ireland Limited, priority 2012, dated 2022)

Assay: Cross-study analysis of trough EPA concentrations in plasma and RBCs (Phase 1 PK, MARINE, ANCHOR)
Assay type: in vivo, human
Experimental: The objective of this Example is to examine the effects of high-purity ethyl eicosapentaenoate (“IPE”) on EPA concentrations in plasma and RBCs in response to dose and the relationship to triglyceride (“TG”) lowering across 3 clinical studies.
MARINE and ANCHOR were 12-week, phase 3, double-blind studies that randomized patients to IPE 4 g/day, 2 g/day, or placebo. MARINE randomized 229 patients with TG≥500 and ≤2000 mg/dL while ANCHOR randomized 702 high-risk patients with TG≥200 and ≤500 mg/dL despite LDL-C control while on statin therapy. IPE 4 g/day and 2 g/day were also investigated in 48 healthy subjects for 4 weeks in a phase 1 pharmacokinetic (“PK”) study. […]
In the MARINE and ANCHOR studies, the trough EPA concentrations were measured after 12 weeks of dosing with placebo, 2 g/day or 4 g/day IPE
In the Phase 1 PK study, the trough EPA concentrations were measured after 28 days of dosing with 2 or 4 g/day IPE (there was no placebo group; a value of zero is used in plots as a point of reference)
EPA concentrations were measured with a validated LC-MS/MS method in plasma and in RBCs in all 3 studies […]
Quantitation utilized linolenic acid as an internal standard and EPA as the standard for the calibration curve; for total plasma EPA and total RBC EPA, the lower limits of quantitation were 10 μg/mL and 5 μg/mL, respectively

**Q.** Which results are given for CC/C=C\C/C=C\C/C=C\C/C=C\C/C=C\CCCC(=O)OCC [IPE, all-cis eicosa-5,8,11,14,17-pentaenoic acid ethyl ester]?
**A.** dose dependence of plasma and RBC EPA levels (2 and 4 g/day groups, all 3 studies): linear with dose; effect of demographic factors, baseline TG levels and concomitant medications on EPA concentrations in plasma and RBCs (MARINE and ANCHOR): did not affect the increase in EPA concentrations
